Measured values published in the supplement of paper PMC10307832.

Columns and labels:
Assay in all cases: relative viability (nuclei count vs DMSO), 5 days (fraction); higher = more cells survive
Crizotinib + OSI-027 = compound: C[C@@H](Oc1cc(-c2cnn(C3CCNCC3)c2)cnc1N)c1c(Cl)ccc(F)c1Cl [Crizotinib] + COc1cccc2cc(-c3nc([C@H]4CC[C@H](C(=O)O)CC4)n4ncnc(N)c34)[nH]c12 [OSI-027] (partner 0.5 µM)
Outline: (§1)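 Values are medians from duplicate plates. Each reflects relative viability, defined as the nuclei count of treated wells over that of vehicle wells. Lung cancer cell lines in 1536-well plates were pin-tool dosed one day after seeding with one drug alone or with a fixed anchor-drug dose plus five library-drug doses (not always all listed) in √10 steps, then fixed, stained and imaged at 4× after 5 days.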

Carfilzomib + Navitoclax = compound: CC(C)C[C@H](NC(=O)[C@H](CCc1ccccc1)NC(=O)CN1CCOCC1)C(=O)N[C@@H](Cc1ccccc1)C(=O)N[C@@H](CC(C)C)C(=O)[C@@]1(C)CO1 [Carfilzomib] + CC1(C)CCC(c2ccc(Cl)cc2)=C(CN2CCN(c3ccc(C(=O)NS(=O)(=O)c4ccc(N[C@H](CCN5CCOCC5)CSc5ccccc5)c(S(=O)(=O)C(F)(F)F)c4)cc3)CC2)C1 [Navitoclax] (partner 0.5 µM)
Outline: as §1

Olaparib + Bortezomib = compound: O=C(c1cc(Cc2n[nH]c(=O)c3ccccc23)ccc1F)N1CCN(C(=O)C2CC2)CC1 [Olaparib] + CC(C)C[C@H](NC(=O)[C@H](Cc1ccccc1)NC(=O)c1cnccn1)B(O)O [Bortezomib] (partner 0.002 µM)
Outline: as §1

Olaparib + Linsitinib = compound: O=C(c1cc(Cc2n[nH]c(=O)c3ccccc23)ccc1F)N1CCN(C(=O)C2CC2)CC1 [Olaparib] + C[C@]1(O)C[C@@H](c2nc(-c3ccc4ccc(-c5ccccc5)nc4c3)c3c(N)nccn32)C1 [Linsitinib] (partner 1 µM)
Outline: as §1

| Cell Line | relative viability (Crizotinib + OSI-027; first compound 0.01 µM) | relative viability (Crizotinib + OSI-027; first compound 0.03162 µM) | relative viability (Crizotinib + OSI-027; first compound 0.1 µM) | relative viability (Crizotinib + OSI-027; first compound 1 µM) | relative viability (Carfilzomib + Navitoclax; first compound 0.001 µM) | relative viability (Carfilzomib + Navitoclax; first compound 0.003162 µM) | relative viability (Carfilzomib + Navitoclax; first compound 0.01 µM) | relative viability (Carfilzomib + Navitoclax; first compound 0.03162 µM) | relative viability (Carfilzomib + Navitoclax; first compound 0.1 µM) | relative viability (Olaparib + Bortezomib; first compound 0.08 µM) | relative viability (Olaparib + Bortezomib; first compound 0.253 µM) | relative viability (Olaparib + Bortezomib; first compound 2.53 µM) | relative viability (Olaparib + Bortezomib; first compound 8 µM) | relative viability (Olaparib + Linsitinib; first compound 0.08 µM) | relative viability (Olaparib + Linsitinib; first compound 0.253 µM) | relative viability (Olaparib + Linsitinib; first compound 2.53 µM) | relative viability (Olaparib + Linsitinib; first compound 8 µM) | relative viability (Crizotinib + OSI-027; first compound 0.3162 µM) |
| --- | --- | --- | --- | --- | --- | --- | --- | --- | --- | --- | --- | --- | --- | --- | --- | --- | --- | --- |
| NCI-H1915 | 0.563 | 0.63 | 0.636 | 0.608 | 0.717 | 0.785 | 0.762 | 0.438 | 0.0486 | 0.957 | 0.758 | 0.792 | 0.645 | 1.14 | 1.02 | 0.734 | 0.651 |  |
| NCI-H1975 | 0.72 | 0.812 | 0.755 | 0.721 | 1.05 | 1.23 | 0.416 | 0.213 | 0.144 | 0.424 | 0.364 | 0.403 | 0.319 | 1.02 | 0.95 | 0.9 | 0.895 | 0.754 |
| NCI-H1993 | 0.564 | 0.507 | 0.543 | 0.563 | 0.856 | 0.773 | 1.08 | 0.861 | 0.527 | 1.06 | 1.16 | 1.06 | 1.18 | 0.745 | 0.749 | 0.831 | 0.78 | 0.516 |
| NCI-H2009 | 0.704 | 0.611 | 0.64 | 0.642 | 1.24 | 1.2 | 1.15 | 0.993 | 0.0572 | 1.06 | 0.953 | 0.914 | 0.638 | 1.28 | 1.17 | 1.09 | 0.928 | 0.594 |
| NCI-H2023 | 0.354 | 0.438 | 0.359 | 0.329 | 1 | 0.967 | 1.02 | 0.907 | 0.0939 | 1.13 | 0.884 | 0.931 | 0.675 | 0.754 | 0.608 | 0.535 | 0.469 | 0.297 |
| NCI-H2085 | 0.552 | 0.985 | 0.66 | 0.748 | 1.08 | 1.23 | 1.02 | 0.436 | 0.242 | 1.25 | 0.92 | 0.981 | 0.808 | 0.982 | 0.868 | 0.819 | 0.677 |  |
| NCI-H2087 | 0.442 | 0.611 | 0.548 | 0.327 | 1.07 | 0.97 | 0.721 | 0.115 | 0.0804 | 0.96 | 0.753 | 0.842 | 0.66 | 0.984 | 0.912 | 0.83 | 0.685 |  |
| NCI-H2126 | 0.638 | 0.7 | 0.714 | 0.621 | 0.826 | 0.884 | 0.871 | 0.865 | 0.592 | 1.22 | 0.994 | 1.07 | 1.08 | 0.808 | 0.641 | 0.698 | 0.7 | 0.654 |
| NCI-H2228 | 0.607 | 0.563 | 0.54 | 0.164 | 1.06 | 1.56 | 0.788 | 0.699 | 0.0563 | 1.02 | 0.821 | 1.02 | 0.661 | 0.686 | 0.629 | 0.698 | 0.434 | 0.272 |
| NCI-H2347 | 0.375 | 0.324 | 0.417 | 0.414 | 0.698 | 0.931 | 0.733 | 0.512 | 0.235 | 1.28 | 0.715 | 0.974 | 0.676 | 1.03 | 0.879 | 0.823 | 0.816 | 0.386 |
| NCI-H2405 | 0.636 | 0.605 | 0.587 | 0.593 |  | 1.26 | 1.04 | 0.108 | 0.092 | 1.04 | 0.914 | 1.01 | 0.934 | 1.15 | 0.93 | 0.915 | 0.851 | 0.669 |
| NCI-H3122 | 0.896 | 0.909 | 0.79 | 0.16 | 1.03 | 1.07 | 1.05 | 0.992 | 0.672 | 1.01 | 0.985 | 0.993 | 0.947 | 0.95 | 1.04 | 0.954 | 0.899 | 0.218 |
| PC-3 [JPC-3] | 0.786 | 0.802 | 0.76 | 0.745 | 0.74 | 0.84 | 0.761 | 0.705 | 0.138 | 0.991 | 0.692 | 0.852 | 0.846 | 0.93 | 0.914 | 0.962 | 0.908 | 0.683 |
| PC-14 | 0.826 | 0.898 | 0.8 | 1.03 | 1 | 1.05 | 1.05 | 0.133 | 0.0977 | 1.04 | 0.892 | 0.78 | 0.682 | 1.02 | 0.856 | 0.859 | 0.815 | 0.867 |
| RERF-LC-KJ | 0.518 | 0.619 | 0.521 | 0.612 | 0.972 | 1.13 | 0.608 | 0.218 | 0.252 | 1.19 | 1.14 | 1.03 | 1.06 | 0.939 | 0.903 | 0.948 | 0.902 | 0.542 |
| SK-LU-1 | 0.36 | 0.342 | 0.331 | 0.353 | 0.77 | 0.896 | 0.286 | 0.0872 | 0.0846 | 1.33 | 1.08 | 1.23 | 1.19 | 1.34 | 0.998 | 1.02 | 0.622 | 0.324 |
| SW 1573 | 0.538 | 0.609 | 0.563 | 0.587 | 1.06 | 1.11 | 0.8 | 0.0728 | 0.0538 | 1.03 | 0.987 | 0.769 | 0.619 | 0.893 | 0.889 | 0.661 | 0.73 | 0.59 |
